For 14 compounds, DC50 results are on record in patent publication US20250100996A1, “HETEROCYCLOALKYL AND HETEROARYL COMPOUNDS AND PHARMACEUTICAL COMPOSITIONS THAT MODULATE IKZF2” (Plexium, Inc., priority 2021, published 2025).

The DC50 is the concentration at which degradation of the target reaches its halfway point.

Holding throughout (assay type): cell-based
One assay concerns the target T1, IKZF1 (Ikaros) (Homo sapiens, UniProt Q13422).
T1 construct: mScarlet (behind P2A) (C, cleaved yes); expressed in transfected cells
Put plainly: IKZF1 reporter degradation assay (HEK 293T IKZF1-mNeonGreen reporter cell line). The conditions noted are these: HEK 293T IKZF1-mNeonGreen reporter, 24 hours incubation. The method in brief: (§1)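 Stable clonal HEK 293T lines express each IKZF-mNeonGreen-P2A-mScarlet fusion. Cells were seeded, attached overnight, then given compound (≤0.5% DMSO, quadruplicate) for 24 h at 37° C. Imaged for percent mNeonGreen-positive cells, segmented on mScarlet. DC50 from four-parameter logistic fit.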

For a further assay, the target named is T2, GSPT1 (Homo sapiens, UniProt P15170).
T2 construct: HiBiT-tagged cells were generated using CRISPR-Cas12a technology; endogenous in cells; host or cells: HEK293 (endogenous GSPT1 locus edited with HiBiT knock-in)
T2 sequence (Q96SW2 whole entry partner): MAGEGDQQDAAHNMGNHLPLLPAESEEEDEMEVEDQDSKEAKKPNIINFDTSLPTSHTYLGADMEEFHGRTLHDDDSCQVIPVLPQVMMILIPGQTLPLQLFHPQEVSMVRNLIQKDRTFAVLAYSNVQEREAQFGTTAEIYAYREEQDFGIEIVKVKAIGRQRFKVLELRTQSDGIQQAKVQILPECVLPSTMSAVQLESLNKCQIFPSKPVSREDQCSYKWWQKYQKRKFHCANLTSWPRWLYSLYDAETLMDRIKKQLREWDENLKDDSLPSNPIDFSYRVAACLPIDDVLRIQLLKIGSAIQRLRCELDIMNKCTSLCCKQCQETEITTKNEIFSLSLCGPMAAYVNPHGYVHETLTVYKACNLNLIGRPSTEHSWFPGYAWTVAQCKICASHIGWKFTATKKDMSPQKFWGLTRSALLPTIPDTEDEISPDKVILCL
T2 sequence (Q16531 whole entry partner): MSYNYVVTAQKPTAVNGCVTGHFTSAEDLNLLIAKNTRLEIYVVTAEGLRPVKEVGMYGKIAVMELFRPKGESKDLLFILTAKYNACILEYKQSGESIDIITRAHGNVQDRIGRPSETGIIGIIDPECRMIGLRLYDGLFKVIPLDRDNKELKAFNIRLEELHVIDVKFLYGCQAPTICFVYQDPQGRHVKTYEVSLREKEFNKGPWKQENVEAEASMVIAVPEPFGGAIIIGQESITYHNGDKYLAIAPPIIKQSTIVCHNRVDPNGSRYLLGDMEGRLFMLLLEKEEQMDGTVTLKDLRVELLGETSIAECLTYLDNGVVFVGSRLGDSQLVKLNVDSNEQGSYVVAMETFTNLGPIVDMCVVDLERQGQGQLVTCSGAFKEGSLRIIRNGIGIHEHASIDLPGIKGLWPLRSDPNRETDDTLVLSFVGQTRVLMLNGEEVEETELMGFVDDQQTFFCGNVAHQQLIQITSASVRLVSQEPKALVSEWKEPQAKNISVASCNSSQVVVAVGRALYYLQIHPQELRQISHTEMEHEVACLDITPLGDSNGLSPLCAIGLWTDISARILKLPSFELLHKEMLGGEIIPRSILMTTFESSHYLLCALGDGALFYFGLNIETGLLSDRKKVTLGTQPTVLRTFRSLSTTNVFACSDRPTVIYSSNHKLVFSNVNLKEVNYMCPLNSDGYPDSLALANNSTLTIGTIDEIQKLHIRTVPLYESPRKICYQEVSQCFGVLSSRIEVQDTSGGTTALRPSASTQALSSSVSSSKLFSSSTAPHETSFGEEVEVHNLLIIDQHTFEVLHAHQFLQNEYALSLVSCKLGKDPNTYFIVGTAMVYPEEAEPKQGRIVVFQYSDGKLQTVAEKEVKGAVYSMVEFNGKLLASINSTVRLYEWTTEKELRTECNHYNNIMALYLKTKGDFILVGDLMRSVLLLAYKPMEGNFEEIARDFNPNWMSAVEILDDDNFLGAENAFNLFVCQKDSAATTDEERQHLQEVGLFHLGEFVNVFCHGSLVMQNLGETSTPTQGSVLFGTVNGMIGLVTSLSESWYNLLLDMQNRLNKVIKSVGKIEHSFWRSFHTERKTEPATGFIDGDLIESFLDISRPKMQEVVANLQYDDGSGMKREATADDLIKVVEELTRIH
T2 sequence (P15170 whole entry): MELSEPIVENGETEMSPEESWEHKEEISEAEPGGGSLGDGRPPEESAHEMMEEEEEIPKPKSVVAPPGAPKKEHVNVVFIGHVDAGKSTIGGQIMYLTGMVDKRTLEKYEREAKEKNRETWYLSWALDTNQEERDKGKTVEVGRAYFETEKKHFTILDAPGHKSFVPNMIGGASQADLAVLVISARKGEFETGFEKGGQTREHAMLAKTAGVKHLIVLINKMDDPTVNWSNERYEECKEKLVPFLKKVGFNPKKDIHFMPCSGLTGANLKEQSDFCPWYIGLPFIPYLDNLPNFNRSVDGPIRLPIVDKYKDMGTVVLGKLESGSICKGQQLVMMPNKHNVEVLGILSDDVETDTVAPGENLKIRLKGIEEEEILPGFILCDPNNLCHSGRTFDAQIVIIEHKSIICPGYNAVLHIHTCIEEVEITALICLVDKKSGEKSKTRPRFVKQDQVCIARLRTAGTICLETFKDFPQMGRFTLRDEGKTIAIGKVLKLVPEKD
Put plainly: GSPT1 reporter degradation assay (HEK293 hGSPT1 HiBiT-tagged cells). The conditions noted are these: 24 hour incubation. Here is the method:
HEK293_hGSPTl_HiBiT-tagged cells were generated using CRISPR-Cas12a technology. Briefly, ˜400,000 HEK293 cells were transiently co-transfected with precomplexed ribonuclear proteins (RNPs) consisting of 80 pmol of crRNA (IDT), 62 pmol of Cas12a protein (IDT), 3 μg of ssODN donor (IDT; Alt® modifications), 78 pmol of electroporation enhancer (IDT), and 200 ng of pMaxGFP (Lonza). The transfection was performed via nucleofection (Lonza, 4D-Nucleofector X-unit) using solution P3 and program CM-130 in a ([…]) cuvette. Five days post-nucleofection, cells were single-cell-sorted for GFP+(transfected) cells by FACs in 96-well plates and clonally selected. Clones were screened and verified for the desired modification via targeted deep sequencing using gene-specific primers with partial Illumina adapter overhangs as previously described. In brief, clonal cell pellets were harvested, lysed, and used to generate gene-specific amplicons with partial Illumina adapters in PCR #1. Amplicons were indexed in PCR #2 and pooled with other targeted amplicons for other loci to create sequence diversity. Additionally, 10% PhiX sequencing control V3 (Illumina) was added to the pooled amplicon library prior to running the sample on a Miseq Sequencer System (Illumina) to generate paired 2×250 bp reads. Samples were demultiplexed using the index sequences, fastq files were generated, and NGS analysis was performed using CRIS.py. Final clones were authenticated using the PowerPlex fusion system (Promega) and tested negative for mycoplasma by the MycoAlertTMPlus mycoplasma detection kit (Lonza).
Editing construct sequences and screening primers are outlined below (sequence from 5′ to 3′). hGSPT1Cas12acrRNA, CAGE635.GSPT1.g1: […]; CAGE635.g1.anti.ssODN: ttcctcacagtattgtgcagggtcatcaagaaaatgctta[…] CAGCCGCTCACgtcCttctctggaaccagtttcagaacttttccaattgcaatggtcttacctagaaatgaaattttaa (HiBiT tag and silent blocking modifications to prevent Cas12a recutting after integration are in upper case); CAGE635.hGSPT1.DS.F: […]; CAGE635.hGSPT1.DS.R: GTGAA GTAGGCTTCTGCAGTC.
The GSPT1 degradation assay was carried out by harvesting the HEK 293T reporter cell lines and resuspending the cells in media formulated for reduced background fluorescence (FluoroBrite; Thermo Fisher). The respective cell lines were seeded at a density of 8,000 cells/well into white-opaque 384-well optical grade assay tissue culture plates (Greiner 781080-20). The cells were incubated overnight at 37° C. to allow for attachment to the assay plate. Dilutions of the compounds were prepared in DMSO from 10 mM compound stocks. Test compounds were added in a 10-point dilution series (typically 10 μM to 100 pM) using a TECAN D300e Digital Dispenser with an upper limit of 0.5% final DMSO. Plates were centrifuged at 320×g for 2 minutes at room temperature, and subsequently incubated at 37° C.
After 24 hour incubation with the compounds, the plates were allowed to cool to room temperature for 10 minutes. 30 μL of HiBiT lytic buffer+1:50 HiBiT substrate Solution were added to each well. Plates were centrifuged at 320×g for 2 minutes at room temperature and then incubated with shaking at room temperature for 10 minutes covered with foil. Plates were read on a CLARIOstar microplate reader (BMG LabTech), measuring at 450 nm (donor emission) and 610 nm or 630 nm (acceptor emission). The DC50 values were determined by regression to best fit four-parameter logistic curves using GraphPad Prism.

Another assay concerns the target T3, IKZF2 (Helios) (Homo sapiens, UniProt Q9UKS7).
T3 construct: Leu-Asp junction (codons ctcgac before the linker); mScarlet (behind P2A) (C, cleaved yes); expressed in transfected cells
Put plainly: IKZF2 reporter degradation assay (HEK 293T IKZF2-mNeonGreen reporter cell line). The settings on record: HEK 293T IKZF2-mNeonGreen reporter, 24 hours incubation. In a few lines:
as §1

T1 sequence (Q96SW2 whole entry partner): as the sequence (Q96SW2 whole entry partner) above
T1 sequence (Q16531 whole entry partner): as the sequence (Q16531 whole entry partner) above
T1 sequence (Q13422 whole entry): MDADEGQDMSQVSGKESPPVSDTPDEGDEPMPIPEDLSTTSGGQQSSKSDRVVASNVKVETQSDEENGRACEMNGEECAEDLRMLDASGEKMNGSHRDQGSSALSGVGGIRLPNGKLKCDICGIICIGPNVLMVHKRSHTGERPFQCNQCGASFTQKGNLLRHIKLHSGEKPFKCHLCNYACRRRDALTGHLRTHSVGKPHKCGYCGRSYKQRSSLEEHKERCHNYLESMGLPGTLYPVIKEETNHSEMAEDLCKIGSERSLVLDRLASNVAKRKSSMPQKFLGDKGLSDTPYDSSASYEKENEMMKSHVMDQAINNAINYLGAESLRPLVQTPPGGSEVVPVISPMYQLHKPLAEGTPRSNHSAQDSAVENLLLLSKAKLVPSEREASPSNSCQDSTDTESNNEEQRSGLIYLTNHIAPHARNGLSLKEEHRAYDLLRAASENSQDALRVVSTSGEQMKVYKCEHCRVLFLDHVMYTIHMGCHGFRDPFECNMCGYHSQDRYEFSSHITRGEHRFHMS
T3 sequence (Q9UKS7 whole entry): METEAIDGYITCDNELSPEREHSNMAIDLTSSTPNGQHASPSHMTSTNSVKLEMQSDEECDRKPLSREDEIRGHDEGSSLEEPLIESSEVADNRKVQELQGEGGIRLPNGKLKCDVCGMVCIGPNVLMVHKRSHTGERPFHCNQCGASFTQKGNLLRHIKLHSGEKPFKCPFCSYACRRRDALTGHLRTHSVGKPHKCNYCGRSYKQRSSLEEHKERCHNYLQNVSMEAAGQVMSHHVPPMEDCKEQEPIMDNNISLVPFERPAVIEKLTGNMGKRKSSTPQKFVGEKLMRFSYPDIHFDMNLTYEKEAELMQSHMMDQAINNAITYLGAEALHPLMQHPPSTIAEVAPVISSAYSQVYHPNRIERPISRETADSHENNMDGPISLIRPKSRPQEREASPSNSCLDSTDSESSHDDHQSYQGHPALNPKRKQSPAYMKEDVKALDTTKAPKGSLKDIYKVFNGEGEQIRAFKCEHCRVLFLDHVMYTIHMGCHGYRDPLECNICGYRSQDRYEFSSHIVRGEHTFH
T3 sequence (Q96SW2 whole entry, further chain): as the sequence (Q96SW2 whole entry partner) above
T3 sequence (Q16531 whole entry partner): as the sequence (Q16531 whole entry partner) above

Consider `O=C1CCC(N2Cc3cc(O[C@H]4CCCC[C@@H]4N4CC(C5CCOC5)C4)ccc3C2=O)C(=O)N1` (stereo partly drawn) [Compound 14-A, 3-(1-oxo-5-(((1S,2S)-2-(3-(tetrahydrofuran-3-yl)azetidin-1-yl)cyclohexyl)oxy)isoindolin-2-yl)piperidine-2,6-dione], for which the DC50 is above 30 µM at IKZF1 (Ikaros), above 30 µM on GSPT1 and 0.028 µM on IKZF2 (Helios).
Turning to `N#CC1(C(=O)N2CCC(C3CN([C@H]4CCCC[C@@H]4Oc4ccc5c(c4)CN(C4CCC(=O)NC4=O)C5=O)C3)CC2)CC1` (stereo partly drawn) [Compound 27-A, 1-(4-(1-((1S,2S)-2-((2-(2,6-dioxopiperidin-3-yl)-1-oxoisoindolin-5-yl)oxy)cyclohexyl)azetidin-3-yl)piperidine-1-carbonyl)cyclopropane-1-carbonitrile], the DC50 on IKZF1 (Ikaros) was at least 30 µM; on GSPT1 it was above 30 µM; at IKZF2 (Helios), 0.008 µM.
The like results for `CC12CC(C(=O)N3CCC(C4CN([C@H]5CCCC[C@@H]5Oc5ccc6c(c5)CN(C5CCC(=O)NC5=O)C6=O)C4)CC3)(C1)C2` (stereo partly drawn) [Compound 28-A, 3-(5-(((1S,2S)-2-(3-(1-(3-methylbicyclo[1.1.1]pentane-1-carbonyl)piperidin-4-yl)azetidin-1-yl)cyclohexyl)oxy)-1-oxoisoindolin-2-yl)piperidine-2,6-dione] were, in that order, above 30 µM, above 30 µM and 0.002 µM.
The matching figures for `CC1(C(=O)N2CCC(C3CN([C@H]4CCCC[C@@H]4Oc4ccc5c(c4)CN(C4CCC(=O)NC4=O)C5=O)C3)CC2)COC1` (stereo partly drawn) [Compound 29-A, 3-(5-(((1S,2S)-2-(3-(1-(3-methyloxetane-3-carbonyl)piperidin-4-yl)azetidin-1-yl)cyclohexyl)oxy)-1-oxoisoindolin-2-yl)piperidine-2,6-dione]: above 30 µM, above 30 µM and 0.011 µM.
`N#CC1(C(=O)N2CCC(C3CN([C@H]4CCCC[C@@H]4Oc4ccc5c(c4)CN(C4CCC(=O)NC4=O)C5=O)C3)CC2)CCC1` (stereo partly drawn) [Compound 30-A, 1-(4-(1-((1S,2S)-2-((2-(2,6-dioxopiperidin-3-yl)-1-oxoisoindolin-5-yl)oxy)cyclohexyl)azetidin-3-yl)piperidine-1-carbonyl)cyclobutane-1-carbonitrile]: the DC50 on IKZF1 (Ikaros) is above 30 µM; on GSPT1, above 30 µM; on IKZF2 (Helios), 0.0005 µM.
Take `CC1(C(=O)N2CCC(C3CN([C@H]4CCCC[C@@H]4Oc4ccc5c(c4)CN(C4CCC(=O)NC4=O)C5=O)C3)CC2)CC1` (stereo partly drawn) [Compound 31-A, 3-(5-(((1S,2S)-2-(3-(1-(1-methylcyclopropane-1-carbonyl)piperidin-4-yl)azetidin-1-yl)cyclohexyl)oxy)-1-oxoisoindolin-2-yl)piperidine-2,6-dione]: the values for the DC50 on IKZF1 (Ikaros), on GSPT1 and at IKZF2 (Helios) were above 30 µM, above 30 µM and 0.0001 µM, respectively.
As to `O=C1CCC(N2Cc3cc(O[C@H]4CCCC[C@@H]4N4CC(C5CCN(C(=O)C6CC(F)(F)C6)CC5)C4)ccc3C2=O)C(=O)N1` (stereo partly drawn) [Compound 32-A, 3-(5-(((1S,2S)-2-(3-(1-(3,3-difluorocyclobutane-1-carbonyl)piperidin-4-yl)azetidin-1-yl)cyclohexyl)oxy)-1-oxoisoindolin-2-yl)piperidine-2,6-dione], the figures for the DC50 at IKZF1 (Ikaros), on GSPT1 and at IKZF2 (Helios) were above 30 µM, above 30 µM and 0.001 µM, respectively.
Turning to `CC1(C(=O)N2CCC(C3CN([C@H]4CCCC[C@@H]4Oc4ccc5c(c4)CN(C4CCC(=O)NC4=O)C5=O)C3)CC2)CCCC1` (stereo partly drawn) [Compound 33-A, 3-(5-(((1S,2S)-2-(3-(1-(1-methylcyclopentane-1-carbonyl)piperidin-4-yl)azetidin-1-yl)cyclohexyl)oxy)-1-oxoisoindolin-2-yl)piperidine-2,6-dione], the DC50 at IKZF1 (Ikaros) and at GSPT1 was above 30 µM in each case.
Consider `O=C1CCC(N2Cc3cc(O[C@H]4CCCC[C@@H]4N4CC(C5CCN(C(=O)CC6CC6)CC5)C4)ccc3C2=O)C(=O)N1` (stereo partly drawn) [Compound 34-A, 3-(5-(((1S,2S)-2-(3-(1-(2-cyclopropylacetyl)piperidin-4-yl)azetidin-1-yl)cyclohexyl)oxy)-1-oxoisoindolin-2-yl)piperidine-2,6-dione], for which the 50% degradation concentration (DC50) was above 30 µM on IKZF1 (Ikaros), above 30 µM at GSPT1 and 0.002 µM at IKZF2 (Helios).
For `CC1CC1C(=O)N1CCC(C2CN([C@H]3CCCC[C@@H]3Oc3ccc4c(c3)CN(C3CCC(=O)NC3=O)C4=O)C2)CC1` (stereo partly drawn) [Compound 35-A, 3-(5-(((1S,2S)-2-(3-(1-(2-methylcyclopropane-1-carbonyl)piperidin-4-yl)azetidin-1-yl)cyclohexyl)oxy)-1-oxoisoindolin-2-yl)piperidine-2,6-dione], the figures for the DC50 on IKZF1 (Ikaros), at GSPT1 and at IKZF2 (Helios) were above 30 µM, above 30 µM and 0.001 µM, respectively.
Turning to `O=C1CCC(N2Cc3cc(O[C@H]4CCCC[C@@H]4N4CC(C5CCN(C(=O)C6(F)CC6)CC5)C4)ccc3C2=O)C(=O)N1` (stereo partly drawn) [Compound 42-A, 3-(5-(((1S,2S)-2-(3-(1-(1-fluorocyclopropane-1-carbonyl)piperidin-4-yl)azetidin-1-yl)cyclohexyl)oxy)-1-oxoisoindolin-2-yl)piperidine-2,6-dione], the 50% degradation concentration (DC50) is above 30 µM on IKZF1 (Ikaros), above 30 µM at GSPT1 and 0.001 µM on IKZF2 (Helios).
Regarding `O=C1CCC(N2Cc3cc(O[C@H]4CCCC[C@@H]4N4CC(C5CCOCC5F)C4)ccc3C2=O)C(=O)N1` (stereo partly drawn) [Compound 55-A, 3-(5-(((1S,2S)-2-(3-(3-fluorotetrahydro-2H-pyran-4-yl)azetidin-1-yl)cyclohexyl)oxy)-1-oxoisoindolin-2-yl)piperidine-2,6-dione], the DC50 at IKZF1 (Ikaros) was above 30 µM; on GSPT1, above 30 µM; on IKZF2 (Helios) it was 0.005 µM.
For `O=C1CCC(N2Cc3cc(O[C@H]4CCCC[C@@H]4N4CC(C5CCN(S(=O)(=O)C6CCC6)CC5)C4)ccc3C2=O)C(=O)N1` (stereo partly drawn) [Compound 57-A, 3-(5-(((1S,2S)-2-(3-(1-(cyclobutylsulfonyl)piperidin-4-yl)azetidin-1-yl)cyclohexyl)oxy)-1-oxoisoindolin-2-yl)piperidine-2,6-dione], the DC50 on IKZF1 (Ikaros) was above 30 µM; on GSPT1, above 30 µM; on IKZF2 (Helios), 0.002 µM.
As to `O=C1CCC(N2Cc3cc(O[C@H]4CCCC[C@@H]4N4CC(c5ccc6cccnc6c5)C4)ccc3C2=O)C(=O)N1` (stereo partly drawn) [Compound 87-B, 3-(1-oxo-5-(((1S,2S)-2-(3-(quinolin-7-yl)azetidin-1-yl)cyclohexyl)oxy)isoindolin-2-yl)piperidine-2,6-dione], the DC50 at IKZF1 (Ikaros) is above 30 µM; on GSPT1, above 30 µM; on IKZF2 (Helios), 0.004 µM.
